We go through seven compounds from ChEMBL document CHEMBL1641475, “Synthesis, hypolipidemic and hypoglycemic activity of some novel 2-(4-(2-substituted aminothiazole-4-yl) phenoxy)-2-methyl propanoic acid derivatives” (2011).

Holding throughout (format): functional
For assay [1], the system named is Rattus norvegicus. Nature of the assay: Antihyperlipidemic activity in high fat diet-induced hyperlipidemic Sprague-Dawley rat assessed as blood triglyceride level at 250 mg/kg, po after 7 days (reference value: 135 +/- 1.592 mg/dl).
Assay [2] has as its system Rattus norvegicus. As to the kind of experiment: Antihyperlipidemic activity in high fat diet-induced hyperlipidemic Sprague-Dawley rat assessed as blood LDL level at 250 mg/kg, po after 7 days (reference value: 75.5 +/- 1.24 mg/dl).
Assay [3] concerns Rattus norvegicus. Nature of the assay: Antihyperglycemic activity in high fat diet-induced hyperglycemic Sprague-Dawley rat assessed as blood glucose level at 250 mg/kg, po after 7 days (reference value: 106.3 +/- 0.6666 mg/dl).
Assay [4] relates to Rattus norvegicus. As to the kind of experiment: Antihyperlipidemic activity in high fat diet-induced hyperlipidemic Sprague-Dawley rat assessed as blood cholesterol level at 250 mg/kg, po after 7 days (reference value: 121.5 +/- 1.335 mg/dl).
Assay [5] relates to Rattus norvegicus. As to the kind of experiment: Antihyperlipidemic activity in high fat diet-induced hyperlipidemic Sprague-Dawley rat assessed as blood VLDL level at 250 mg/kg, po after 7 days (reference value: 27 +/- 0.3183 mg/dl).
In assay [6] the test system is Rattus norvegicus. As to the kind of experiment: Antihyperlipidemic activity in high fat diet-induced hyperlipidemic Sprague-Dawley rat assessed as blood HDL level at 250 mg/kg, po after 7 days (reference value: 19 +/- 0.5774 mg/dl).

As to `CC(C)(Oc1ccc(-c2csc(NCC(=O)c3ccc(Cl)cc3)n2)cc1)C(=O)O`, the Activity in assay [1] worked out at 77.33 mg/dL; in assay [2], 61.18 mg/dL; in assay [3], 74.33 mg/dL; in assay [4], 108.3 mg/dL; in assay [5] it was 16.23 mg/dL; in assay [6] it was 32.5 mg/dL.
Regarding `CC(C)OC(=O)C(C)(C)Oc1ccc(C(=O)c2ccc(Cl)cc2)cc1` [FENOFIBRATE], the Activity in assay [1] was determined as 73.17 mg/dL; in assay [2], 55.33 mg/dL; in assay [3], 70.5 mg/dL; in assay [4], 105.2 mg/dL; in assay [5], 14.67 mg/dL; in assay [6], 33.5 mg/dL.
For `CC(C)(Oc1ccc(-c2csc(NC(=O)CC(=O)Cl)n2)cc1)C(=O)O`, the Activity amounted to 81.17 mg/dL in assay [1]; 67.75 mg/dL in assay [2]; 66.67 mg/dL in assay [3]; 116.5 mg/dL in assay [4]; 16.53 mg/dL in assay [5]; 35.83 mg/dL in assay [6].
For `CC(C)(Oc1ccc(-c2csc(NC(=O)CCl)n2)cc1)C(=O)O`, the Activity in assay [1] came to 85.5 mg/dL; in assay [2], 59.53 mg/dL; in assay [3] it was 72.33 mg/dL; in assay [4], 111.5 mg/dL; in assay [5] it was 17.1 mg/dL; in assay [6] it was 34.33 mg/dL.
As for `CC(C)(Oc1ccc(-c2csc(NC(=O)c3ccccc3)n2)cc1)C(=O)O`, the Activity in assay [1] was found to be 85.5 mg/dL; in assay [2], 43.67 mg/dL; in assay [3], 74.5 mg/dL; in assay [4], 96.5 mg/dL; in assay [5], 15.47 mg/dL; in assay [6], 37 mg/dL.
Take `CC(=O)Nc1nc(-c2ccc(OC(C)(C)C(=O)O)cc2)cs1`: the Activity was found to be 80.5 mg/dL in assay [1]; 60.63 mg/dL in assay [2]; 81.5 mg/dL in assay [3]; 108.3 mg/dL in assay [4]; 16.1 mg/dL in assay [5]; 32.67 mg/dL in assay [6].
As to `CC(C)(Oc1ccc(-c2csc(NC(=O)C(=O)Cl)n2)cc1)C(=O)O`, the Activity in assay [1] amounted to 82.67 mg/dL; in assay [2] it was 49.35 mg/dL; in assay [3], 75.17 mg/dL; in assay [4] it was 96.5 mg/dL; in assay [5] it was 15.47 mg/dL; in assay [6] it was 32.5 mg/dL.
